Experimental data: BindingDB's records for patent US20230340011 (Asteroid Therapeutics, 2023)

Experiments:
[1] = biological target: T1, Oxysterols receptor LXR-beta (Homo sapiens, UniProt P55055); assay: In Vitro Assay-LXRβ
T1 sequence (P55055 whole entry): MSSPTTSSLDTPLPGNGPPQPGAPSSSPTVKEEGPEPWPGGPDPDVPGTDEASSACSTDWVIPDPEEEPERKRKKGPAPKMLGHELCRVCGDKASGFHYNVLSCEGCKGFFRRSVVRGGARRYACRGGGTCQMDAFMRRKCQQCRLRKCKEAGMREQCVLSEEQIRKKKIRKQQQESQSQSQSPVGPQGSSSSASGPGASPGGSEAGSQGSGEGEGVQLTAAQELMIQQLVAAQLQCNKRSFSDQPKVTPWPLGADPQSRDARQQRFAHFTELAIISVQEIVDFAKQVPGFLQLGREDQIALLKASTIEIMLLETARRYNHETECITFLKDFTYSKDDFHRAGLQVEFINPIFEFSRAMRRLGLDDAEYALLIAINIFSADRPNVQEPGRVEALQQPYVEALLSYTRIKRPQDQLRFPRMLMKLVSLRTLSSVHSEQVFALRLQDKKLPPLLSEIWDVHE
Description: PathHunter NHR CHO cells stably transfected with tagged full-length human LXRβ and a nuclear fusion protein containing Steroid Receptor Co-activator Peptide (SRCP). The full-length human LXRβ was tagged with the ProLink component of the DiscoverX Enzyme Fragment Complementation (EFC) system and the SRCP domain is fused to the enzyme acceptor component (EA) expressed in the nucleus. Cells were seeded in a total volume of 20 μL into white walled, 384-well microplates and incubated at 37 C. overnight prior to testing. Assay media contained charcoal-dextran filtered serum to reduce the level of hormones present. Final assay vehicle concentration was 1%. […] Microplates were read following signal generation with a PerkinElmer Envision instrument for chemiluminescent signal detection.

[2] = biological target: T2, Sterol regulatory element-binding protein 2 (Homo sapiens, UniProt Q12772); assay: In Vitro Assay-SREBP-2
T2 sequence (Q12772 whole entry): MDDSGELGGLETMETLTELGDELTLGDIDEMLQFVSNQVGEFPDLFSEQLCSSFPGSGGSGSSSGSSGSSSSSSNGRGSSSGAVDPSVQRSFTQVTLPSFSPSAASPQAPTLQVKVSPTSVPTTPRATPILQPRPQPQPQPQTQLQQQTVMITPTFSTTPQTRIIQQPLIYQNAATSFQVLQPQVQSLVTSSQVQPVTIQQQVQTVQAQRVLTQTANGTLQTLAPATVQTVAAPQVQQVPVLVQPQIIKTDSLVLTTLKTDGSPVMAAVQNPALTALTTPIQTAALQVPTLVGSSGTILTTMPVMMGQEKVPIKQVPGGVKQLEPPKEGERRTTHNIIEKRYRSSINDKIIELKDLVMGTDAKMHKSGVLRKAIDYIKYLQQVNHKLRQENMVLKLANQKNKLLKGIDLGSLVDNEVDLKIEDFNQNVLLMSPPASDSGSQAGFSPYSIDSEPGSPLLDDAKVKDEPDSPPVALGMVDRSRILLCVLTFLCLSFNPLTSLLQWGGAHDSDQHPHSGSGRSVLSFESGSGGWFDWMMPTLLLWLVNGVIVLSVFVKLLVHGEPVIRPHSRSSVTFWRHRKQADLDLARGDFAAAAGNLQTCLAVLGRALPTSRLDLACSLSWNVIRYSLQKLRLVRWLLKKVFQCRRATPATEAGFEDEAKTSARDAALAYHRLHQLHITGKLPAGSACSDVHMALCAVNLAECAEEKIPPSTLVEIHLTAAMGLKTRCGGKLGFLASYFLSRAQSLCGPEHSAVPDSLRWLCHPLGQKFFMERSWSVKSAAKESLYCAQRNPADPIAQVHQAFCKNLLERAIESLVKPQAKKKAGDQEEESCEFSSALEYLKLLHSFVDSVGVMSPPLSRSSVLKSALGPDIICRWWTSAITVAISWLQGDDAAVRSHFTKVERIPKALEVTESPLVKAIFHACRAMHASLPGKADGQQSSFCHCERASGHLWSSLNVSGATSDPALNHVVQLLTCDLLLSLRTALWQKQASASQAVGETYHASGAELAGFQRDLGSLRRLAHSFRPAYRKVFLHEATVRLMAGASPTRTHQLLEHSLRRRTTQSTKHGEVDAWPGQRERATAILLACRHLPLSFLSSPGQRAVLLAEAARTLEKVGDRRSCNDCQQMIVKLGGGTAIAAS
Description: 10,000 cells/well of the PathHunter U2OS SREBP-2 Nuclear Translocation Cell Line are plated in quadruplicate on 384 well plates in 20 μL of AssayComplete cell plating 5 reagent (CP5-high serum) overnight at 37° C./5% CO2. A dilution series of test compound is added to cells, incubated for 1 hour at 37° C./5% CO2, and U18666A (a known SREBP agonist) is added to a final concentration of 10 μM. The plate is incubated overnight (16 hours) at 37° C./5% CO2. PathHunter Flash detection mix is added to the wells, incubated one hour in the dark, and the plate read on an Envision luminometer.

Structure (SMILES)	IC50 [1]	IC50 [2] [nM]
Cc1cccc(/C=C/[C@@H](C)[C@H]2CC[C@H]3[C@@H]4CC=C5C[C@@H](O)CC[C@]5(C)[C@H]4CC[C@]23C)n1 [US20230340011, Example 132.]	in the range around 5500 nM	
C[C@H](CCC(=O)N1CCN(C(=O)c2ccnnc2)CC1)[C@H]1CC[C@H]2[C@@H]3CC=C4C[C@@H](O)CC[C@]4(C)[C@H]3CC[C@]12C [US20230340011, Example 389.]		≤ 250
COC(=O)N1CCN(C(=O)CCC[C@H]2CC[C@H]3[C@@H]4CC=C5C[C@@H](O)CC[C@]5(C)[C@H]4CC[C@]23C)CC1 [US20230340011, Example 421.]		≤ 250
CCOC(=O)N1CCN(C(=O)CC[C@@H](C)[C@H]2CC[C@H]3[C@@H]4CC=C5C[C@@H](O)CC[C@]5(C)[C@H]4CC[C@]23C)CC1 [US20230340011, Example 422.]		≤ 250
